Measurements from patent publication US20130267500A1, “5-HT2C RECEPTOR AGONISTS IN THE TREATMENT OF DISORDERS AMELIORATED BY REDUCTION OF NORE[…]” (Arena Pharmaceuticals, Inc., priority 2010, published 2013).

Experiments:
5-HT2A receptors = 5-HT2A receptors (Homo sapiens, UniProt P28223); settings: cited from earlier work
5-HT2B receptors = 5-HT2B receptors (Homo sapiens, UniProt P41595); settings: cited from earlier work
human 5-HT2C receptors = target: T1, human 5-HT2C receptors (Homo sapiens, UniProt P28335); settings: cited from earlier work
T1 sequence (P28335 33-458): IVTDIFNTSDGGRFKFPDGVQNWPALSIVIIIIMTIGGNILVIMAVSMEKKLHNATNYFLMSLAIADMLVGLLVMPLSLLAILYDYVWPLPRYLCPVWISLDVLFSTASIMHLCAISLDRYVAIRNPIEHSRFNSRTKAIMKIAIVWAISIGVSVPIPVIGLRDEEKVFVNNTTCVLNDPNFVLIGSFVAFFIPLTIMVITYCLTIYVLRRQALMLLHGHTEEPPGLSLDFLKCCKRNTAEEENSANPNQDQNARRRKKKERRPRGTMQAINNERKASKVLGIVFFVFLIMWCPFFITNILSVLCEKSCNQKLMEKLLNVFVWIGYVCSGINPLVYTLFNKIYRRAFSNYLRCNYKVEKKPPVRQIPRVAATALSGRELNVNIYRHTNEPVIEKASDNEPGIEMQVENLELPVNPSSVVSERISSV

norepinephrine = experiment: 56-day placebo-controlled study: 24 h urine norepinephrine; type: in vivo, human; settings: 10 mg BID
Procedure: (§1) A fifty-six-day, double-blind, randomized, placebo-controlled, parallel-group study was conducted to assess the effects of lorcaserin hydrochloride administration to overweight and obese male and female patients. The study was completed according to the guidelines of Good Clinical Practice and was conducted in full compliance with the World Medical Association Declaration of Helsinki and its most recent amendments.
(§2) Fifty-seven overweight or obese adult male and female subjects aged 18 to 65 years inclusive were randomized to one of two treatment groups: placebo or lorcaserin hydrochloride (10 mg) twice-a-day (BID) for 56 days. The majority of subjects were female (68.4%) and Caucasian (63.2%). […]
(§3) The analyses of all efficacy variables used the Modified Intent-to-Treat Population (MITT) population. Patient data were analyzed according to the treatment assigned at randomization, regardless of the treatment received during the course of the trial. […] Compliance was assessed by the number of remaining tablets. […]
(§4) Mean concentrations and mean change from baseline in 24 h urine epinephrine and norepinephrine at Day 7 and Day 56 were assessed. […] Epinephrine was below the limit of quantitation in 44 of 55 available patient samples at Day 7 and 33 of 52 available samples at Day 56. […]

[1] = cited from earlier work
epinephrine = experiment: 56-day placebo-controlled study: 24 h urine epinephrine; type: in vivo, human; settings: after 7 or 56 days of treatment; small number of evaluable samples
Procedure: as §1, §2, §3, §4

[2] = 56-day placebo-controlled study: safety (adverse events, ECG, BDI-II); type: in vivo, human
Procedure: as §1
(§5) Fifty-seven overweight or obese adult male and female subjects aged 18 to 65 years inclusive were randomized to one of two treatment groups: placebo or lorcaserin hydrochloride (10 mg) twice-a-day (BID) for 56 days. The majority of subjects were female (68.4%) and Caucasian (63.2%). […] Patients were required to participate in the Arena Healthy Lifestyle Program®, designed specifically for this study, which included a 600 kcal deficit diet and 30 minutes of moderate exercise per day.
(§6) Each subject underwent screening procedures within 28 days or sooner, prior to dosing on Day 1, over 3 screening visits (Days −28, −14, and −7). This was followed by an initial inpatient period of 4 days, a 3-day outpatient period, a second 4-day inpatient period, a second outpatient period over 45 days which included 7 visits, and a final 3-day inpatient period. Fifty-three subjects completed the study.
(§7) Lorcaserin formulation is composed of white tablets containing lorcaserin (active) and excipients (silicified microcrystalline cellulose NF, hydroxypropyl cellulose NF, croscarmellose sodium NF, magnesium stearate NF and Opadry® II white). The placebo is composed of white tablets containing excipients.
(§8) All enrolled patients received two oral doses per day (one dose in the morning prior to breakfast and one dose in the evening prior to dinner) of study medication (lorcaserin or placebo) for 56 days. Dosing was performed in a double-blind manner so that neither the patient nor the Investigator knew which treatment had been assigned. Patients were told to take the study medication each morning and evening approximately 60 minutes before breakfast and dinner and were encouraged to take the study medication with an adequate amount of water (8 oz or 240 mL). Patients were asked not to crush, break, chew, or dissolve the tablets.
A 12-lead ECG was performed at screening (baseline), and during the exit visit (Day 57). […] Individual subjects experienced abnormalities at all time points including baseline. […] None of the abnormalities were clinically significant.
Serial assessments of depression were performed during the study at Days −2, +6 and +55 (Beck Depression Inventory-II (BDI-II)).

[3] = 56-day placebo-controlled study of lorcaserin hydrochloride: body weight; type: in vivo, human; settings: for Bodyweight, Mean: lorcaserin hydrochloride 10 mg BID oral
Procedure: as §1, §5, §6, §7, §8
Patients were required to fast for 10 hours prior to each study visit that requires a blood sample for clinical laboratory tests. Participants were weighed (in duplicate) at each study visit wearing a hospital gown. Efforts were made to schedule study visits prior to 10:00 a.m. to capture the fasted body weight and to reduce the variability in body weight normally observed throughout the day. Weights were measured in kilograms (kg).
The analyses of all efficacy variables used the Modified Intent-to-Treat Population (MITT) population. Patient data were analyzed according to the treatment assigned at randomization, regardless of the treatment received during the course of the trial. Inclusion was dependent on the presence of a baseline measurement, consumption of at least one study dose, and a post-randomization measurement. Patients were instructed to bring their unused study drug with them to each study visit. Compliance was assessed by the number of remaining tablets. Change from baseline or percent change from baseline is defined as the change from Day 1 (randomization) measurement. If the Day 1 measurement was not available, the last non-missing pre-randomization measurement was used as the baseline value, otherwise baseline was considered missing. […]

[4] = phase 3 program, up to two years
[5] = lorcaserin group, 10 mg BID, 56 days

Chain of 5-HT2A receptors (P28223 whole entry): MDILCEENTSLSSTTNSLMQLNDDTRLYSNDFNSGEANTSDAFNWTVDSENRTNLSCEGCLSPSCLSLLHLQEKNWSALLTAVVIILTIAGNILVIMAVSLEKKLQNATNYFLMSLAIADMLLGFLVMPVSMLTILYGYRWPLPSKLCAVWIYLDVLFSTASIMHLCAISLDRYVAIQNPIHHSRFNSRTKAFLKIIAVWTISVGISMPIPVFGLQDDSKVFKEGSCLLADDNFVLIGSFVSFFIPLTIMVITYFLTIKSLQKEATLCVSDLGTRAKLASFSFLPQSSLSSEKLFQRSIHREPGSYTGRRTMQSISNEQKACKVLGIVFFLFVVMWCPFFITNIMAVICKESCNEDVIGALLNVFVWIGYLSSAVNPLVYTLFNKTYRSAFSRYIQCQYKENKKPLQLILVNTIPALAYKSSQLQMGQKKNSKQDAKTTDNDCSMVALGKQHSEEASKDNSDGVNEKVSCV
Chain of 5-HT2B receptors (P41595 whole entry): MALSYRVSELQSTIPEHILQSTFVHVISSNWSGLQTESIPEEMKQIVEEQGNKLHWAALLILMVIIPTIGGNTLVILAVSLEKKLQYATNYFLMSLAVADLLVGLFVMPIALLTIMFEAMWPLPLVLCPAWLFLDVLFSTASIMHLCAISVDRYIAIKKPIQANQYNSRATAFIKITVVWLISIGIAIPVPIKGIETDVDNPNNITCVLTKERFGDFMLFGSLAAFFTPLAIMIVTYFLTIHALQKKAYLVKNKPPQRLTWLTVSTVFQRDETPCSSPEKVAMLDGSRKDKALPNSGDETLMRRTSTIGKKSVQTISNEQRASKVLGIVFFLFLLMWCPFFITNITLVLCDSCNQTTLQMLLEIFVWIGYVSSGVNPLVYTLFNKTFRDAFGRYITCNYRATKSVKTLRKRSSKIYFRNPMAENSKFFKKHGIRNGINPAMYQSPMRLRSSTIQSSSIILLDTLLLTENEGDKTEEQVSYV

CN(C)[C@@H]1Cc2ccccc2[C@@H](c2ccccc2)C1 [(1R,3S)-(−)-trans-1-phenyl-3-dimethylamino-1,2,3,4-tetrahydronaphthalene]
activity at 5-HT2A receptors (5-HT2A receptors): antagonist | activity at 5-HT2B receptors (5-HT2B receptors): antagonist | activity at human 5-HT2C receptors (human 5-HT2C receptors): agonist

C[C@H]1CNCCc2ccc(Cl)cc21 [Lorcaserin, (R)-8-Chloro-1-methyl-2,3,4,5-tetrahydro-1H-3-benzazepine]
24 h norepinephrine excretion in urine (norepinephrine; after 7 days (p<0.0001)): significant decrease | 24 h norepinephrine excretion in urine (norepinephrine; after 56 days (p<0.001)): significant decrease | excess body weight lost (normal BMI of 25) ([1]; first phase 3 trial): about one-third | patients achieving at least 5% weight loss [1, 4]: About two-thirds | patients achieving at least 10% weight loss [1, 4]: over one-third | average weight lost, of their weight ([1]; phase 3 program): about 8% | depression or suicidal ideation ([1]; phase 3 program): no signal | heart rate and blood pressure ([1]; phase 3 program): went down | risk of cardiac valvulopathy ([1]; phase 3 program): did not increase the risk | average weight loss, top quartile of patients ([1]; second phase 3 trial): 35 pounds | average weight loss, top quartile of patients, of body weight ([1]; second phase 3 trial): 16% | 24 h epinephrine excretion (epinephrine): no change | deaths or serious adverse events ([2]; 10 mg BID, 56 days): No deaths or serious adverse events occurred | early terminations due to AEs ([2]; 10 mg BID, 56 days): no early terminations due to AEs | incidence of depression related adverse events ([2]; 10 mg BID, 56 days): did not increase | tolerability ([2]; 10 mg BID, 56 days): generally well tolerated | Beck Depression Inventory-II (BDI-II), difference between lorcaserin and placebo groups ([2]; Days -2, +6 and +55): No meaningful differences | Headache, subjects with at least 1 event ([2]; lorcaserin group (29 randomized), 10 mg BID, 56 days): 11 subjects | Dizziness, subjects reporting [2, 5]: 3 subjects | Headache, rate of subjects with at least 1 event [2, 5]: 37.9% | 12-lead ECG effects ([2]; screening vs exit visit (Day 57)): no apparent treatment-related effects on ECG | Bodyweight, Mean ([3]; Day 1 (baseline), overweight/obese patients): 96.59 kg | Bodyweight, Mean ([3]; Day 6): 96.67 kg | Bodyweight, Mean ([3]; Day 55): 93.84 kg | weight loss ([3]; at 6 days, 10 mg BID): No significant weight loss | weight loss as compared to placebo ([3]; at 55 days, 10 mg BID): Significantly greater weight loss
